Where two headings read alike, the source gives them in different places.
Assays:
[1] = tested on: HIV-1CH58TF; assay: microbe, parasite or virus in culture; format: cell-based; conditions: TZM-bl cells, average ± SD of at least three independent experiments, read-out: Viral neutralization IC50, HIV-1CH58TF
[2] = tested on: HIV-1JRFL-infected primary CD4+ T cells; assay: Anti-CoRBS 17b mAb binding to infected cells (flow cytometry); format: cell-based, human; conditions: 50 µM CD4mc; p24+ population; MFI
[3] = tested on: HIV-1AD8-infected primary CD4+ T cells; assay: HIV+ plasma cell-surface staining of infected cells; format: cell-based, human; conditions: 50µM compound; plasma 1:1000
[4] = tested on: HIV-1AD8-infected primary CD4+ T cells; assay: FACS-based ADCC assay with HIV+ plasma; format: cell-based, human; conditions: 50µM compound; plasma 1/1000; effector/target 10:1
[5] = target: LMHT gp120CRF01_AE coree (Human immunodeficiency virus type 1, UniProt Q0ED31, DEL123-198/DEL305-311/DEL316-323/H375T/H60Y/I469M/K470R/N199G/N304G/N468D/P313S/Q104H/Q315S/T200G/V107I); assay: biochemical; format: binding, HIV-1
[6] = tested on: HIV-1AD8; assay: microbe, parasite or virus in culture; format: cell-based; conditions: TZM-bl cells, tier-2 virus, average ± SD of at least three independent experiments, read-out: Viral neutralization IC50, HIV-1AD8
[7] = tested on: VSV-G pseudovirus; assay: microbe, parasite or virus in culture; format: cell-based; conditions: TZM-bl, read-out: Viral neutralization IC50, VSV-G Pseudovirus
[8] = tested on: HIV-1CH58TF-infected primary CD4+ T cells; assay: HIV+ plasma cell-surface staining of infected cells; format: cell-based, human; conditions: 50µM compound; plasma 1:1000
[9] = tested on: HIV-1CH58TF-infected primary CD4+ T cells; assay: FACS-based ADCC assay with HIV+ plasma; format: cell-based, human; conditions: 50µM compound; plasma 1/1000; effector/target 10:1
[10] = tested on: HIV-1CH58TF-infected primary CD4+ T cells; assay: Anti-CoRBS 17b mAb binding to infected cells (flow cytometry); format: cell-based, human; conditions: 50 µM CD4mc; p24+ population; MFI
[11] = tested on: HIV-1JRFL; format: cell-based; conditions: TZM-bl cells; tier-2 virus; average ± SD of at least three independent experiments
[12] = tested on: HIV-1JRFL-infected primary CD4+ T cells; assay: HIV+ plasma cell-surface staining of infected cells; format: cell-based, human; conditions: 50µM compound; plasma 1:1000
[13] = tested on: HIV-1JRFL-infected primary CD4+ T cells; assay: FACS-based ADCC assay with HIV+ plasma; format: cell-based, human; conditions: 50µM compound; plasma 1/1000; effector/target 10:1
[14] = Human immunodeficiency virus 1, TZM-bl

In the case of `NCC(=O)N1CCN(C(=O)N2C[C@H](CO)C[C@H](C(=O)Nc3ccc(Cl)c(F)c3)C2)CC1` (racemic) [DL-I-101], the IC50 [1, 14] is reported as 0.16 ± 0.03 µM, the “17b binding (exposure of the CoRBS), HIV-1JRFL-infected cells” value (“17b binding … HIV-1JRFL-infected cells” below) [2] is reported as “successfully exposed the CoRBS” and the “HIV+ plasma binding (recognition of infected cells), HIV-1AD8” value (“HIV+ plasma binding … HIV-1AD8” below) [3] is reported as “did”. The “Susceptibility to ADCC mediated by HIV+ plasma, HIV-1AD8” value [4] was “translated into ADCC”, the IC50 [5] was 0.308 µM and the IC50 [6, 14] was 10.2 ± 3.1 µM. It also gave an IC50 [7] of over 100 µM.
In the case of `O=C(O)CN1CCN(C(=O)N2C[C@H](CO)C[C@H](C(=O)Nc3ccc(Cl)c(F)c3)C2)CC1` (racemic) [DL-I-102], the IC50 [1, 14] is reported as 0.66 ± 0.25 µM, the “17b binding … HIV-1JRFL-infected cells” value [2] is reported as “successfully exposed the CoRBS” and the IC50 [5] is reported as 0.561 µM. It also gave an IC50 [6, 14] of 87 ± 39 µM and an IC50 [7] of over 100 µM.
With `CNCc1ccc2c(c1)C[C@H](CNC(=N)N)[C@H]2NC(=O)C(=O)Nc1ccc(Cl)c(F)c1` [BNM-III-170, reference compound] the “HIV+ plasma binding (recognition of infected cells), HIV-1CH58TF” value [8] was “enhanced the recognition”, the IC50 [1, 14] was 0.0336 µM and the IC50 [1] was 0.033 ± 0.01 µM. The “Susceptibility to ADCC mediated by HIV+ plasma, HIV-1CH58TF” value [9] was “enhanced”, the IC50 [6, 14] was 3.75 µM and the IC50 [6] was 3.75 ± 1.3 µM. It also gave an IC50 [7] of over 100 µM.
`NCCNC(=O)N1CCC[C@H](C(=O)Nc2ccc(Cl)c(F)c2)C1` [MCG-IV-210, reference compound] was tested, and the “HIV+ plasma binding (recognition of infected cells), HIV-1CH58TF” value [8] was “enhanced the recognition”, the IC50 [1, 14] was 3.46 ± 1.06 µM and the “17b binding … HIV-1JRFL-infected cells” value [2] was “but not the tier-2 HIV-1JRFL”. The “HIV+ plasma binding … HIV-1AD8” value [3] was “did not promote HIV+ plasma binding”, the IC50 [5] was 0.969 µM and the “Susceptibility to ADCC mediated by HIV+ plasma, HIV-1CH58TF” value [9] was “enhanced”. The “17b binding (exposure of the CoRBS), HIV-1CH58TF-infected cells” value [10] was “exposed the CoRBS”, the IC50 [6, 14] was over 100 µM and the “Viral neutralization IC50, HIV-1JRFL” value [11] was “unable to inhibit viral infection”. The IC50 [7] was over 100 µM.
With `CN1CCN(C(=O)N2CCC[C@H](C(=O)Nc3ccc(Cl)c(F)c3)C2)CC1` [TFH-I-070-A6] the IC50 [1, 14] was 0.45 ± 0.09 µM, the “17b binding … HIV-1JRFL-infected cells” value [2] was “successfully exposed the CoRBS” and the “HIV+ plasma binding … HIV-1AD8” value [3] was “did”. For the same compound, the IC50 [6, 14] was 9.59 ± 3.4 µM and the IC50 [7] was over 100 µM.
`CC1CN(C(=O)N2CCCC(C(=O)Nc3ccc(Cl)c(F)c3)C2)CC(C)N1C` (stereo not shown) [TFH-I-116-D1] was tested, and the IC50 [1, 14] was 0.0655 µM, the “17b binding … HIV-1JRFL-infected cells” value [2] was “successfully exposed the CoRBS” and the “HIV+ plasma binding … HIV-1AD8” value [3] was “did”. The “Susceptibility to ADCC mediated by HIV+ plasma, HIV-1AD8” value [4] was “translated into ADCC”, the “HIV+ plasma binding (recognition of infected cells), HIV-1JRFL” value [12] was “recognized the infected cells” and the IC50 [6, 14] was 4.8 µM. The “Susceptibility to ADCC mediated by HIV+ plasma, HIV-1JRFL” value [13] was “not translated into enhanced ADCC” and the IC50 [7] was over 100 µM.
For `CN1CCN(C(=O)N2C[C@H](CN)C[C@H](C(=O)Nc3ccc(Cl)c(F)c3)C2)CC1` [ZXC-I-090], the IC50 [1, 14] was 2.63 ± 0.5 µM, the IC50 [6, 14] was over 100 µM and the IC50 [7] was over 100 µM.
`C[C@@H]1CN(C(=O)N2C[C@H](CN)C[C@H](C(=O)Nc3ccc(Cl)c(F)c3)C2)C[C@H](C)N1C` [ZXC-I-092] was tested, and the IC50 [1, 14] was 0.75 ± 0.12 µM, the “17b binding … HIV-1JRFL-infected cells” value [2] was “successfully exposed the CoRBS” and the IC50 [6, 14] was 34 ± 13.8 µM. For the same compound, the IC50 [7] was over 100 µM.
